These results are taken from patent US20030215462A1, “Use of UGT inhibitors to increase bioavailability” (priority 2001, published 2003).

The test system of data set [1] is UGT enzymes of human liver microsomes. Briefly: Inhibition of 7-HFC glucuronidation in human liver microsomes. The format is biochemical. Conditions: 7-HFC 50 μM, human liver microsomes 100 μg/ml, 15 min.
Data set [2] deals with T1, UGT enzymes of human liver microsomes.
T1 construct: percentage of control metabolism, 7-HFC glucuronidation; percentage of control metabolism, 7-HFC glucuronidation
Described as above. The data set is classed as biochemical. The settings on record: 7-HFC 50 μM, human liver microsomes 100 μg/ml, 15 min.

Data set [3] concerns UGT enzymes of human liver microsomes. Briefly: Inhibition of raloxifene glucuronidation (G1, G2) in human liver microsomes. The data set is classed as biochemical. The source says:
Compounds were eluted using a binary solvent gradient system. […] Solvent B was methanol. […] Detection was at 280 nm.

Data set [4] concerns the target T2, UGT1A1 (Homo sapiens, UniProt P22309).
T2 sequence (P22309 26-533): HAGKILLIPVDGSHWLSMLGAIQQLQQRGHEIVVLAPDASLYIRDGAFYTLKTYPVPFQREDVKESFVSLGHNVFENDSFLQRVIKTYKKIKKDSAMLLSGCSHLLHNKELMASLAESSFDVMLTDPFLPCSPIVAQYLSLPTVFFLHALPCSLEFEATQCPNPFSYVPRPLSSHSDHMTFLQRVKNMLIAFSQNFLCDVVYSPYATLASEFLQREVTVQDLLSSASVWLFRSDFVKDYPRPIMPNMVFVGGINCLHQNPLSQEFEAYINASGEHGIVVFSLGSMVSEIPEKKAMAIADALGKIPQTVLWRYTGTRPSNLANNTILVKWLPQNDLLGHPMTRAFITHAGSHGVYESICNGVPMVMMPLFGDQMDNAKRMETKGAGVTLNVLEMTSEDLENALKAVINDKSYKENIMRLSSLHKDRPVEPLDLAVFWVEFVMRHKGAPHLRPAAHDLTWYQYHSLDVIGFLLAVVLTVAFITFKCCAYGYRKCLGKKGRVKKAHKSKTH
Briefly: in vitro.
Protocol: (§1) Compounds were eluted using a binary solvent gradient system. Solvent A was water brought to pH 8 with NH4OH. Solvent B was methanol. Solvent flow rate was 1 ml/min and the column temperature was maintained at 50° C. Detection was at 280 nm. […] The system was then returned to the initial conditions and equilibrated for 3 min.

Data set [5] has as its target T3, UGT1A3 (Homo sapiens, UniProt P35503).
T3 sequence (P35503 29-534): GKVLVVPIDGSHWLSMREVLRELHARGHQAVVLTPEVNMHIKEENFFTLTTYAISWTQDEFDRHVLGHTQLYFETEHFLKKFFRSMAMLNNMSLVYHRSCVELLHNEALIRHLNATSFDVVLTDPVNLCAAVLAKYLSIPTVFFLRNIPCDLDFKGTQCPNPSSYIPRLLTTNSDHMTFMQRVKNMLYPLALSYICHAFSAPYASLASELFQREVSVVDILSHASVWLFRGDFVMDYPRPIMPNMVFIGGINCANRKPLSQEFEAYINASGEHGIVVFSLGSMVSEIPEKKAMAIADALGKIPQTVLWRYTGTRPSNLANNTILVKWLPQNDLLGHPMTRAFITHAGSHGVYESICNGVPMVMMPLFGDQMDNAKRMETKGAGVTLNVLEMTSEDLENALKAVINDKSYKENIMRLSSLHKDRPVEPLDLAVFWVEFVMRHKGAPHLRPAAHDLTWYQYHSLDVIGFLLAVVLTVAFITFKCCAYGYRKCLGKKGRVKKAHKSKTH
Nature of the data set: in vitro.
Protocol: as §1

Data set [6] deals with T4, UGT1A10 (Homo sapiens, UniProt Q9HAW8).
T4 sequence (Q9HAW8 26-530): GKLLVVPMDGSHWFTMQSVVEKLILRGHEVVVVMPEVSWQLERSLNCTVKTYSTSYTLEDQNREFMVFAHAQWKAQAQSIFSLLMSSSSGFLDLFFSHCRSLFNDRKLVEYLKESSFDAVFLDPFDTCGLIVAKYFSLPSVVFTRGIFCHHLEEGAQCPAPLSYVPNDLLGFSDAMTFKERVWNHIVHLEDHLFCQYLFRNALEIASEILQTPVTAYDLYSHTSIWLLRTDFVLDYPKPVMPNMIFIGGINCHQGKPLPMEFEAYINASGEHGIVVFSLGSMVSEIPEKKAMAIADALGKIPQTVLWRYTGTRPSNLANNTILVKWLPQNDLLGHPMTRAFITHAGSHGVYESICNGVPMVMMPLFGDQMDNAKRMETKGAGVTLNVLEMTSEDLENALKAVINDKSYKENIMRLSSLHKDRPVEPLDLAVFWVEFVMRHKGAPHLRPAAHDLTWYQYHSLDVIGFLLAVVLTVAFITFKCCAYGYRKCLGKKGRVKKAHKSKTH
Nature of the data set: in vitro. Conditions: pH 7.5, % of control metabolism.
Protocol: as §1

Data set [7] has as its target T2, UGT1A1. Nature of the data set: Inhibition of raloxifene glucuronidation by recombinant UGT1A1 Supersomes. The settings on record: UGT1A1.
Protocol: as §1
Data set [8] addresses T3, UGT1A3. Nature of the data set: Inhibition of raloxifene glucuronidation by recombinant UGT1A3 Supersomes. The settings on record: UGT1A3.
Protocol: as §1
Data set [9] addresses T5, UGT1A9 (Homo sapiens, UniProt O60656).
T5 sequence (O60656 26-530): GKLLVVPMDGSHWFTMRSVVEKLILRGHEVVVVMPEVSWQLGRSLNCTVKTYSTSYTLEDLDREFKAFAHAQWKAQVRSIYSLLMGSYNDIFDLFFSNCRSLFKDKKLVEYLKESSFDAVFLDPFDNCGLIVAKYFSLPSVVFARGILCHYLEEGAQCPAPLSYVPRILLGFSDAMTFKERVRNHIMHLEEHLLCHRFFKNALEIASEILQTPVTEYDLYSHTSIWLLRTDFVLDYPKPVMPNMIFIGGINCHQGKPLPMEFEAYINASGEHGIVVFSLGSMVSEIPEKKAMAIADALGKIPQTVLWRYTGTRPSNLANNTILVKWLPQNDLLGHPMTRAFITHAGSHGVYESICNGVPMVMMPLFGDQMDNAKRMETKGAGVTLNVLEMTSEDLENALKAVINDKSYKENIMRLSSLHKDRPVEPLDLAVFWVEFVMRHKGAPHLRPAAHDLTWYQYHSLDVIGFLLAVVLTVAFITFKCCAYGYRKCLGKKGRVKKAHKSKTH
Briefly: Inhibition of raloxifene glucuronidation by recombinant UGT1A9 Supersomes. Conditions: for activity at 15 min, 50 µM: human, Supersomes with recombinant human UGT1A9, pH 7.5, probe raloxifene 50 μM.
Protocol: as §1

For data set [10], the target named is T4, UGT1A10. Briefly: Inhibition of raloxifene glucuronidation by recombinant UGT1A10 Bacculosomes. The settings on record: UGT1A10.
Protocol: as §1
Data set [11] addresses T5, UGT1A9. Nature of the data set: in vitro. The settings on record: pH 7.5, % of control metabolism.
Protocol: as §1
For data set [12] the following is noted: humans; cited from earlier work.
The mark [13] stands for this setting: G1, inhibitor 500 μM, raloxifene 50 μM, human liver microsomes 250 μg/ml, 15 min.
[14] abbreviates: G2, inhibitor 500 μM, raloxifene 50 μM, human liver microsomes 250 μg/ml, 15 min.
The mark [15] stands for this setting: raloxifene 50 μM, inhibitor 100 μM.
Where [16] appears, read: pH 7.5, % of control metabolism, raloxifene G1.
Where [17] appears, read: pH 7.5, % of control metabolism, raloxifene G2.
The mark [18] stands for this setting: pH 7.5, Inhibition of raloxifene glucuronidation, G1, UGT1A1.
[19] abbreviates: pH 7.5, Inhibition of raloxifene glucuronidation, G2, UGT1A1.
Setting [20] is: pH 7.5, Inhibition of raloxifene glucuronidation, G1, UGT1A3.
The mark [21] stands for this setting: pH 7.5, Inhibition of raloxifene glucuronidation, G2, UGT1A3.

“And” between values parts separate entries of the source, which are not always exact repeats. Identical values can stand only once. Like-named read-outs stand apart in the source and are kept apart here.

On to `CC(=O)OC1CC(C)CCC1C(C)C` (single isomer, unassigned; (-)) [(−)-Menthyl acetate], for which the “% of control metabolism (SD, n = 3), 7-HFC glucuronidation” value in data set [1] (inhibitor 1000 μM) is 32 (1) %; in [1] (inhibitor 2000 μM), 26 (1) %; in data set [2] (inhibitor 100 μM) it was 86 (2) %; in data set [2] (inhibitor 200 μM) it was 72 (2) %; in data set [2] (inhibitor 500 μM), 53 (2), % and 53 (1) %. In [3] (setting [13]), the “% of control metabolism (SD, n = 3), raloxifene glucuronide G1” value was 76 (1) %. Further, the “% of control metabolism (SD, n = 3), raloxifene glucuronide G2” value in data set [3] (setting [14]) is 69 (0) %.
As for `CC(C)[C@@H]1CC[C@@H](C)C[C@H]1O` [(L)-Menthol], the “% of control metabolism (SD, n = 3), 7-HFC glucuronidation” value in data set [1] (inhibitor 1000 μM) is 72 (1) %; in data set [1] (inhibitor 2000 μM), 53 (0) %; in data set [2] (inhibitor 500 μM) it was 75 (2), % and 80 (2) %. In data set [3], the “% of control metabolism (SD, n = 3), raloxifene glucuronide G1” value is 108 (4) %. Besides, the “% of control metabolism (SD, n = 3), raloxifene glucuronide G2” value in data set [3] is recorded as 97 (2) %.
As for `COc1c(C)c2c(c(O)c1C/C=C(\C)CCC(=O)O)C(=O)OC2` [Mycophenolic acid, reference compound], the “% of control metabolism (SD, n = 3), 7-HFC glucuronidation” value in data set [2] (inhibitor 500 μM) is 83 (2) %. Moreover, the “% of control metabolism (SD, n = 3), raloxifene glucuronide G1” value in data set [3] (G1, inhibitor 100 μM, raloxifene 50 μM, human liver microsomes 250 μg/ml, 15 min) is 89 (3) %; in [3] (setting [13]), 43 (5) %. For the same compound, the “% of control metabolism (SD, n = 3), raloxifene glucuronide G2” value is given as 89 (2) % in data set [3] (G2, inhibitor 100 μM, raloxifene 50 μM, human liver microsomes 250 μg/ml, 15 min) and 47 (1) % in [3] (setting [14]). Moreover, the “% of control metabolism, raloxifene G1” value in data set [3] (setting [15]) is on record as 89 (3) %. Moreover, the “% of control metabolism, raloxifene G2” value in data set [3] (setting [15]) is 89 (2) %. In addition, the activity at 15 min, 50 µM on UGT1A1 [4] (setting [16]) was determined as 90%; on UGT1A1 [4] (setting [17]), 89%; at UGT1A1 [4] (setting [18]), 90%; at UGT1A1 [4] (setting [19]) it was 89%; at UGT1A3 [5] (setting [16]) it was 95%; at UGT1A3 [5] (setting [17]) it was 87%. Further, the activity at 15 min, 50 µM on UGT1A3 [5] (setting [20]) worked out at 95%; at UGT1A3 [5] (setting [21]), 87%; at UGT1A10 [6] (raloxifene G1), 110%; on UGT1A10 [6] (raloxifene G2), 98%; on UGT1A9 [9] (formation of glucuronide G1, % of control metabolism, raloxifene G1, UGT1A9, inhibitor 50 μM), 81%; on UGT1A9 [9] (formation of glucuronide G2, % of control metabolism, raloxifene G2, UGT1A9, inhibitor 50 μM), 83%. For the same compound, the “inhibition of raloxifene glucuronidation, in words” value at UGT1A1 [7], on UGT1A3 [8], on UGT1A9 [9] (UGT1A9) and at UGT1A10 [10] was “poor inhibitors” throughout. Moreover, the “Inhibition of raloxifene glucuronidation, UGT1A9, second line per inhibitor (G2)” value on UGT1A9 [9] (second line (G2, metabolite not given), inhibitor 50 μM, raloxifene 50 μM, 250 μg/ml Supersomes, 1 mM UDPGA, 15 min) is 83 (3).
`O=C(O)c1ccccc1O` [Salicylic acid]: the “% of control metabolism (SD, n = 3), 7-HFC glucuronidation” value was 47 (1) % in data set [1] (inhibitor 1000 μM); 35 (1) % in data set [1] (inhibitor 2000 μM); 84 (1) % in data set [2] (inhibitor 100 μM); 75 (2) % in [2] (inhibitor 200 μM); 64 (0), % and 63 (1) % in [2] (inhibitor 500 μM). For the same compound, the “% of control metabolism (SD, n = 3), raloxifene glucuronide G1” value in data set [3] (setting [13]) is given as 92 (2) %. In addition, the “% of control metabolism (SD, n = 3), raloxifene glucuronide G2” value in data set [3] (setting [14]) was 94 (2) %.
For `COc1cc(C2Oc3cc([C@H]4Oc5cc(O)cc(O)c5C(=O)[C@@H]4O)ccc3OC2CO)ccc1O` (some centres unmarked) [Silibinin], the activity at 15 min, 10 µM at UGT1A1 [4] (setting [16]) worked out at 69%; at UGT1A1 [4] (setting [17]), 63%; at UGT1A3 [5] (setting [16]) it was 81%; at UGT1A3 [5] (setting [17]), 56%; on UGT1A3 [5] (setting [20]), 81%; at UGT1A3 [5] (setting [21]), 56%. Besides, the activity at 15 min, 10 µM on UGT1A9 [11] (raloxifene G1) came to 93%; on UGT1A9 [11] (raloxifene G2) it was 72%. Moreover, the activity at 15 min, 25 µM came to 46% at UGT1A1 [4] (setting [16]); 33% at UGT1A1 [4] (setting [17]); 46% on UGT1A1 [4] (setting [18]); 33% on UGT1A1 [4] (setting [19]); 59% on UGT1A3 [5] (setting [16]); 32% on UGT1A3 [5] (setting [17]). Besides, the activity at 15 min, 25 µM at UGT1A3 [5] (setting [20]) was determined as 58%; at UGT1A3 [5] (setting [21]), 32%; at UGT1A9 [11] (raloxifene G1) it was 74%; on UGT1A9 [11] (raloxifene G2), 47%. Further, the activity at 15 min, 50 µM at UGT1A1 [4] (setting [16]) came out at 18%; on UGT1A1 [4] (setting [17]) it was 7%; at UGT1A1 [4] (setting [18]) it was 18%; on UGT1A1 [4] (setting [19]), 7%; at UGT1A3 [5] (setting [16]), 37%; on UGT1A3 [5] (setting [17]) it was 10%. The activity at 15 min, 50 µM at UGT1A3 [5] (setting [20]) came to 37%; on UGT1A3 [5] (setting [21]), 10%; on UGT1A9 [11] (raloxifene G1), 59%; at UGT1A9 [11] (raloxifene G2) it was 22%; on UGT1A10 [6] (raloxifene G1) it was 56%; at UGT1A10 [6] (raloxifene G2), 64%.
Take `C[C@H](CCc1ccccc1)NC[C@H](O)c1ccc(O)c(C(N)=O)c1` [dilevalol]: in data set [12], the absolute oral bioavailability is recorded as 11-29%.
